Experiment: HILIC, Waters ACQUITY UPLC BEH Amide, 100 × 2.1 mm, 1.7 µm; A: water + 0.125% formic acid + 10 mM ammonium formate; B: 5% water + 95% acetonitrile + 0.125% formic acid + 10 mM ammonium formate; gradient (min/%B) 0/100 2/100 7.7/70 9.5/40 10.25/30 12.75/100 17/100
Settings: stereoisomer not certain

SMILES | LC retention time [min]
Nc1nc(N)nc(-c2cc(Cl)ccc2Cl)n1 [Irsogladine] | 1.25
CC(C)CN [Isobutylamine] | 5.04
CC(C)C(=O)O [Isobutyric acid] | 1.77
CCC(C)C(N)C(=O)O (stereo unspecified) [Isoleucine] | 7.18
OCC1OC(OCC2OC(O)C(O)C(O)C2O)C(O)C(O)C1O (stereo unspecified) [Isomaltose] | 7.19
CC(C)=CCNc1ncnc2nc[nH]c12 [Isopentenyladenine] | 1.81
COc1cc(-c2oc3cc(O)cc(O)c3c(=O)c2OC2OC(COC3OC(C)C(O)C(O)C3O)C(O)C(O)C2O)ccc1O (stereo unspecified) [Isorhamnetin-3-O-rutinoside] | 6.02
COc1cc(-c2oc3cc(O)cc(O)c3c(=O)c2OC2OC(CO)C(O)C(O)C2O)ccc1O (stereo unspecified) [Isorhamnetin-3-glucoside] | 4.49
CC(C)CC(=O)OC(CC(=O)[O-])C[N+](C)(C)C [Isovaleryl-L-carnitine] | 5.36
Nc1nc2[nH]c(=O)cnc2c(=O)[nH]1 [Isoxanthopterin] | 6.41
COC(=O)C1=C(C)NC(C)=C(C(=O)OC(C)C)C1c1cccc2nonc12 (stereo unspecified) [Isradipine] | 0.95
COc1ccc(C(=O)NCc2ccc(OCCN(C)C)cc2)cc1OC [Itopride] | 3.65
CCC(C)n1ncn(-c2ccc(N3CCN(c4ccc(OCC5COC(Cn6cncn6)(c6ccc(Cl)cc6Cl)O5)cc4)CC3)cc2)c1=O (stereo unspecified) [Itraconzaole] | 0.97
CC1OC(OCC2OC(Oc3c(-c4ccc(O)cc4)oc4cc(O)cc(O)c4c3=O)C(O)C(O)C2O)C(O)C(O)C1O (stereo unspecified) [Kaempferol-3-O-rutinoside] | 6.09
O=c1c(O)c(-c2ccc(O)cc2)oc2cc(O)cc(O)c12 [Kaempferol] | 1.4
CC(=O)N1CCN(c2ccc(OCC3COC(Cn4ccnc4)(c4ccc(Cl)cc4Cl)O3)cc2)CC1 (stereo unspecified) [Ketoconazole] | 1.73
CC(C)C(=O)C(=O)O [Ketoisovaleric acid] | 2.84
CN1CCC(=C2c3ccccc3CC(=O)c3sccc32)CC1 [Ketotifen] | 2.71
COC1C(O)CC(=O)OC(C)CC=CC=CC(O)C(C)CC(CC=O)C1OC1OC(C)C(OC2CC(C)(O)C(OC(=O)CC(C)C)C(C)O2)C(N(C)C)C1O (stereo unspecified) [Kitasamycin] | 2.04
O=C(O)c1cc(=O)c2ccccc2[nH]1 [Kynurenic acid] | 6.15
Nc1ccccc1C(=O)CC(N)C(=O)O (stereo unspecified) [Kynurenine] | 6.98
CS(=O)(=O)Nc1ccc(Cc2noc(-c3ccc4[nH]cc(CCN)c4c3)n2)cc1 [L-694,247] | 5.25
NC(CCC(=O)NC(CSSCC(N)C(=O)O)C(=O)NCC(=O)O)C(=O)O [L-Cysteine-glutathione disulfide] | 10.2

SMILES | LC retention time [min]
NC(=O)NCCCC[C@H](N)C(=O)O [L-Homocitrulline] | 8.73
CCOC(=O)C1=C(C)NC(C)=C(C(=O)OCC)C1c1ccccc1C=CC(=O)OC(C)(C)C [Lacidipine] | 0.94
CC(O)C(N)=O (stereo unspecified) [Lactamide] | 1.74
OCC(O)C(O)C(OC1OC(CO)C(O)C(O)C1O)C(O)CO (stereo unspecified) [Lactitol] | 8.99
Nc1ccn(C2CSC(CO)O2)c(=O)n1 (stereo unspecified) [Lamivudine] | 3.4
Nc1nnc(-c2cccc(Cl)c2Cl)c(N)n1 [Lamotrigine] | 1.98
CC(C)OC(=O)CCCC=CCC1C(O)CC(O)C1CCC(O)CCc1ccccc1 (stereo unspecified) [Latanoprost] | 1.06
CCCCCCCCCCCC(=O)OC(CC(=O)[O-])C[N+](C)(C)C [Lauroyl-L-carnitine] | 3.63
N#Cc1ccc(C(c2ccc(C#N)cc2)n2cncn2)cc1 [Letrozol] | 0.98
CC(C)CC(N)C(=O)NC(C)C(=O)O (stereo unspecified) [Leu-Ala] | 5
CC(C)CC(N)C(=O)NC(CCCN=C(N)N)C(=O)O (stereo unspecified) [Leu-Arg] | 8.86
CC(C)CC(N)C(=O)N1CCCC1C(=O)O (stereo unspecified) [Leu-Pro] | 7.32
CC(C)CC(N)C(=O)O (stereo unspecified) [Leucine] | 7.08
c1ccc(C2CN3CCSC3=N2)cc1 (stereo unspecified) [Levamisole] | 2.95
CCC(C(N)=O)N1CCCC1=O (stereo unspecified) [Levetiracetam] | 1.45
O=C(O)COCCN1CCN(C(c2ccccc2)c2ccc(Cl)cc2)CC1 (stereo unspecified) [Levocetirizine] | 2.9
C#CC1(O)CCC2C3CCC4=CC(=O)CCC4C3CCC21CC (stereo unspecified) [Levonorgestrel] | 0.99
CCN1CCCC1CNC(=O)c1cc(S(N)(=O)=O)ccc1OC (stereo unspecified) [Levosulpiride] | 4.37
CCN(CC)CC(=O)Nc1c(C)cccc1C [Lidocaine] | 1.97
C=C(C)C1CC=C(C)CC1 (stereo unspecified) [Limonene] | 0.92
C=CC(C)(O)CCC=C(C)C (stereo unspecified) [Linalool] | 0.97
CC(=O)NCC1CN(c2ccc(N3CCOCC3)c(F)c2)C(=O)O1 (stereo unspecified) [Linezolide] | 1.15
CCCCCC=CCC=CCCCCCCCC(=O)OC(CC(=O)[O-])C[N+](C)(C)C (stereo unspecified) [Linoleoylcarnitine] | 3.1

SMILES | LC retention time [min]
O=C1N(c2ccccc2)c2ccccc2C1(Cc1ccncc1)Cc1ccncc1 [Linopirdine] | 1.17
NC(=O)CCCCC1CCSS1 (stereo unspecified) [Lipoamide] | 1.25
O=C1CC(c2ccc(O)cc2)Oc2cc(O)ccc21 (stereo unspecified) [Liquiritigenin] | 1.3
CN1C(CC(=O)c2ccccc2)CCCC1CC(O)c1ccccc1 (stereo unspecified) [Lobeline A] | 2.02
CN(CCCN1c2ccccc2CCc2ccccc21)CC(=O)c1ccc(Cl)cc1 [Lofepramine] | 1.91
CC(Oc1c(Cl)cccc1Cl)C1=NCCN1 (stereo unspecified) [Lofexidine] | 2.65
COc1ccc(CN2CCN(C(c3ccc(F)cc3)c3ccc(F)cc3)CC2)c(OC)c1OC [Lomerizine] | 1.7
CC(=O)CCCCn1cnc2c1c(=O)n(C)c(=O)n2C [Lomifylline] | 1.09
CCOC(=O)N1CCC(=C2c3ccc(Cl)cc3CCc3cccnc32)CC1 [Loratadine] | 1.11
O=C1Nc2ccc(Cl)cc2C(c2ccccc2Cl)=NC1O (stereo unspecified) [Lorazepam] | 1.33
CCCCc1nc(Cl)c(CO)n1Cc1ccc(-c2ccccc2-c2nn[nH]n2)cc1 [Losartan] | 1.27
CCOC(=O)OC1(C(=O)OCCl)CCC2C3CCC4=CC(=O)C=CC4(C)C3C(O)CC21C (stereo unspecified) [Loteprednol Etabonate] | 0.97
CN1CCN(C2=Nc3ccccc3Oc3ccc(Cl)cc32)CC1 [Loxapine] | 2.18
CC(C(=O)O)c1ccc(CC2CCCC2=O)cc1 (stereo unspecified) [Loxoprofen] | 1.09
O=c1[nH]c(=O)c2nccnc2[nH]1 [Lumazine] | 2.49
NCCCCC(N)C(=O)NCC(=O)O (stereo unspecified) [Lys-Gly] | 9.84
CC(C)C(NC(=O)C(N)CCCCN)C(=O)O (stereo unspecified) [Lys-Val] | 9.38
NCCCCC(N)C(=O)O (stereo unspecified) [Lysine] | 9.54
CC(C)c1ccc2c(c1)c(SC(C)(C)C)c(CC(C)(C)C(=O)O)n2Cc1ccc(Cl)cc1 [MK-886] | 0.96
NC(=O)C=CC(=O)O [Maleamic acid] | 1.12
Cc1occc(=O)c1O [Maltol] | 1.32
OCC1OC(OC2C(CO)OC(O)C(O)C2O)C(O)C(O)C1O (stereo unspecified) [Maltose] | 8.75
CNCCCC12CCC(c3ccccc31)c1ccccc12 [Maprotiline] | 2.66

SMILES | LC retention time [min]
CC1(C)SC2C(N=CN3CCCCCC3)C(=O)N2C1C(=O)O (stereo unspecified) [Mecillinam] | 4.28
CC(=O)C1(O)CCC2C3CC(C)C4=CC(=O)CCC4(C)C3CCC21C (stereo unspecified) [Medroxyprogesterone] | 1.01
CC(=O)OC1(C(C)=O)CCC2C3C=C(C)C4=CC(=O)CCC4(C)C3CCC21C (stereo unspecified) [Megestrol Acetate] | 0.96
COc1ccc2[nH]cc(CCNC(C)=O)c2c1 [Melatonin] | 1.24
CC1CCN(CCCC(=O)c2ccc(F)cc2)CC1 [Melperone] | 2.12
CC12CC3CC(C)(C1)CC(N)(C3)C2 [Memantine] | 4.24
COc1cc(C)nc(-n2nc(C)cc2OC)n1 [Mepirizole] | 1.03
Cc1cccc(C)c1NC(=O)C1CCCCN1C (stereo unspecified) [Mepivacaine] | 2.96
CCCC(C)(COC(N)=O)COC(N)=O [Meprobamate] | 1.25
CN1CCCCC1CCN1c2ccccc2Sc2ccc(S(C)=O)cc21 (stereo unspecified) [Mesoridazine] | 4.24
CN(C)C(=N)N=C(N)N [Metformin] | 5.44
CCC(=O)C(CC(C)N(C)C)(c1ccccc1)c1ccccc1 (stereo unspecified) [Methadone] | 2
CNC(C)Cc1ccccc1 (stereo unspecified) [Methamphetamine] | 3.33
Cc1ccccc1-n1c(C)nc2ccccc2c1=O [Methaqualone] | 1.1
CSCCC(N)C(=O)O (stereo unspecified) [Methionine] | 7.37
CS(=O)CCC(N)C(=O)O (stereo unspecified) [Methioninesulfoxide] | 8.62
C=CCC1(C(C)C#CCC)C(=O)NC(=O)N(C)C1=O (stereo unspecified) [Methohexital] | 6.9
CN(Cc1cnc2nc(N)nc(N)c2n1)c1ccc(C(=O)NC(CCC(=O)O)C(=O)O)cc1 (stereo unspecified) [Methotrexate] | 7.67
COc1ccc(OC)c(C(O)C(C)N)c1 (stereo unspecified) [Methoxamine] | 4.75
CCC=CCC1C(=O)CCC1CC(=O)OC (stereo unspecified) [Methyl jasmonate] | 1.04
CC(O)C(C)C(=O)O (stereo unspecified) [Methyl-3-hydroxybutyric acid] | 6.22
COC(=O)c1cc(O)c(O)c(O)c1 [Methylgallate] | 1.43

Source: the RepoRT retention time repository
